{
  "source": "ChEMBL document CHEMBL5724914",
  "about": "“Linking interpersonal differences in gut microbiota composition and drug biotransformation activity” (2024); also: call rule not given here",
  "data": [
    {"assay": "(§1) The drug is tested on Z-025 corresponding to rabbit gut metagenome with ENA study accession number: PRJEB37062 and ENA sample accession number: ERS12561824 for biotransformation under anaerobic condition. The drug concentrations were measured over 9 timepoints collected between 0 and 24 hours of incubation by liquid-chromatography-coupled mass spectrometry (LC–MS)", "conditions": "2 µM", "values": [
      {"smiles": "CN1CCOC(c2ccccc2)c2ccccc2C1", "note": "(stereo not given) [NEFOPAM]", "Bacterial Biotransformation": "Compound NOT metabolized"},
      {"smiles": "Cc1ccc(-c2nc3ccc(C)cn3c2CC(=O)N(C)C)cc1", "note": "[ZOLPIDEM]", "Bacterial Biotransformation": "Compound NOT metabolized"}
    ]},
    {"assay": "as §1, with “Z-023” for “Z-025”, “to” for “to rabbit gut”, “ERS12561822” for “ERS12561824”", "conditions": "2 µM", "values": [
      {"smiles": "CN1CCOC(c2ccccc2)c2ccccc2C1", "note": "(stereo not given) [NEFOPAM]", "Bacterial Biotransformation": "Compound NOT metabolized"},
      {"smiles": "Cc1ccc(-c2nc3ccc(C)cn3c2CC(=O)N(C)C)cc1", "note": "[ZOLPIDEM]", "Bacterial Biotransformation": "Compound metabolized"}
    ]},
    {"assay": "as §1, with “Z-022” for “Z-025”, “mouse” for “rabbit”, “ERS12561821” for “ERS12561824”", "conditions": "2 µM", "values": [
      {"smiles": "CN1CCOC(c2ccccc2)c2ccccc2C1", "note": "(stereo not given) [NEFOPAM]", "Bacterial Biotransformation": "Compound NOT metabolized"},
      {"smiles": "Cc1ccc(-c2nc3ccc(C)cn3c2CC(=O)N(C)C)cc1", "note": "[ZOLPIDEM]", "Bacterial Biotransformation": "Compound metabolized"}
    ]},
    {"assay": "as §1, with “Z-021” for “Z-025”, “to” for “to rabbit gut”, “ERS12561820” for “ERS12561824”", "conditions": "2 µM", "values": [
      {"smiles": "CN1CCOC(c2ccccc2)c2ccccc2C1", "note": "(stereo not given) [NEFOPAM]", "Bacterial Biotransformation": "Compound NOT metabolized"},
      {"smiles": "Cc1ccc(-c2nc3ccc(C)cn3c2CC(=O)N(C)C)cc1", "note": "[ZOLPIDEM]", "Bacterial Biotransformation": "Compound NOT metabolized"}
    ]},
    {"assay": "as §1, with “Z-011” for “Z-025”, “mouse” for “rabbit”, “ERS12561811” for “ERS12561824”", "conditions": "2 µM", "values": [
      {"smiles": "CN1CCOC(c2ccccc2)c2ccccc2C1", "note": "(stereo not given) [NEFOPAM]", "Bacterial Biotransformation": "Compound NOT metabolized"},
      {"smiles": "Cc1ccc(-c2nc3ccc(C)cn3c2CC(=O)N(C)C)cc1", "note": "[ZOLPIDEM]", "Bacterial Biotransformation": "Compound NOT metabolized"}
    ]},
    {"assay": "as §1, with “Z-006” for “Z-025”, “mouse” for “rabbit”, “ERS12561806” for “ERS12561824”", "conditions": "2 µM", "values": [
      {"smiles": "CN1CCOC(c2ccccc2)c2ccccc2C1", "note": "(stereo not given) [NEFOPAM]", "Bacterial Biotransformation": "Compound NOT metabolized"},
      {"smiles": "Cc1ccc(-c2nc3ccc(C)cn3c2CC(=O)N(C)C)cc1", "note": "[ZOLPIDEM]", "Bacterial Biotransformation": "Compound NOT metabolized"}
    ]},
    {"assay": "as §1, with “WLS-098” for “Z-025”, “human” for “rabbit”, “ERS12561754” for “ERS12561824”", "conditions": "2 µM", "values": [
      {"smiles": "CN1CCOC(c2ccccc2)c2ccccc2C1", "note": "(stereo not given) [NEFOPAM]", "Bacterial Biotransformation": "Compound metabolized"},
      {"smiles": "Cc1ccc(-c2nc3ccc(C)cn3c2CC(=O)N(C)C)cc1", "note": "[ZOLPIDEM]", "Bacterial Biotransformation": "Compound metabolized"}
    ]},
    {"assay": "as §1, with “WLS-052” for “Z-025”, “human” for “rabbit”, “ERS12561747” for “ERS12561824”", "conditions": "2 µM", "values": [
      {"smiles": "CN1CCOC(c2ccccc2)c2ccccc2C1", "note": "(stereo not given) [NEFOPAM]", "Bacterial Biotransformation": "Compound NOT metabolized"},
      {"smiles": "Cc1ccc(-c2nc3ccc(C)cn3c2CC(=O)N(C)C)cc1", "note": "[ZOLPIDEM]", "Bacterial Biotransformation": "Compound NOT metabolized"}
    ]},
    {"assay": "as §1, with “WLS-039” for “Z-025”, “human” for “rabbit”, “ERS12561746” for “ERS12561824”", "conditions": "2 µM", "values": [
      {"smiles": "CN1CCOC(c2ccccc2)c2ccccc2C1", "note": "(stereo not given) [NEFOPAM]", "Bacterial Biotransformation": "Compound NOT metabolized"},
      {"smiles": "Cc1ccc(-c2nc3ccc(C)cn3c2CC(=O)N(C)C)cc1", "note": "[ZOLPIDEM]", "Bacterial Biotransformation": "Compound NOT metabolized"}
    ]},
    {"assay": "as §1, with “WLS-027” for “Z-025”, “human” for “rabbit”, “ERS12561744” for “ERS12561824”", "conditions": "2 µM", "values": [
      {"smiles": "CN1CCOC(c2ccccc2)c2ccccc2C1", "note": "(stereo not given) [NEFOPAM]", "Bacterial Biotransformation": "Compound metabolized"},
      {"smiles": "Cc1ccc(-c2nc3ccc(C)cn3c2CC(=O)N(C)C)cc1", "note": "[ZOLPIDEM]", "Bacterial Biotransformation": "Compound NOT metabolized"}
    ]},
    {"assay": "as §1, with “WLS-010” for “Z-025”, “human” for “rabbit”, “ERS12561743” for “ERS12561824”", "conditions": "2 µM", "values": [
      {"smiles": "CN1CCOC(c2ccccc2)c2ccccc2C1", "note": "(stereo not given) [NEFOPAM]", "Bacterial Biotransformation": "Compound metabolized"},
      {"smiles": "Cc1ccc(-c2nc3ccc(C)cn3c2CC(=O)N(C)C)cc1", "note": "[ZOLPIDEM]", "Bacterial Biotransformation": "Compound NOT metabolized"}
    ]},
    {"conditions": "human gut metagenome, 24 h, 2 µM", "values": [
      {"smiles": "CN1CCOC(c2ccccc2)c2ccccc2C1", "note": "(stereo not given) [NEFOPAM]", "Bacterial Biotransformation": "Compound metabolized"},
      {"smiles": "Cc1ccc(-c2nc3ccc(C)cn3c2CC(=O)N(C)C)cc1", "note": "[ZOLPIDEM]", "Bacterial Biotransformation": "Compound NOT metabolized"}
    ]},
    {"conditions": "human gut metagenome, 24 h, 2 µM", "remark": "another data set of the same source", "values": [
      {"smiles": "CN1CCOC(c2ccccc2)c2ccccc2C1", "note": "(stereo not given) [NEFOPAM]", "Bacterial Biotransformation": "Compound NOT metabolized"},
      {"smiles": "Cc1ccc(-c2nc3ccc(C)cn3c2CC(=O)N(C)C)cc1", "note": "[ZOLPIDEM]", "Bacterial Biotransformation": "Compound metabolized"}
    ]},
    {"conditions": "human gut metagenome, 24 h, 2 µM", "remark": "another data set of the same source", "values": [
      {"smiles": "CN1CCOC(c2ccccc2)c2ccccc2C1", "note": "(stereo not given) [NEFOPAM]", "Bacterial Biotransformation": "Compound NOT metabolized"},
      {"smiles": "Cc1ccc(-c2nc3ccc(C)cn3c2CC(=O)N(C)C)cc1", "note": "[ZOLPIDEM]", "Bacterial Biotransformation": "Compound NOT metabolized"}
    ]},
    {"conditions": "human gut metagenome, 24 h, 2 µM", "remark": "another data set of the same source", "values": [
      {"smiles": "CN1CCOC(c2ccccc2)c2ccccc2C1", "note": "(stereo not given) [NEFOPAM]", "Bacterial Biotransformation": "Compound NOT metabolized"},
      {"smiles": "Cc1ccc(-c2nc3ccc(C)cn3c2CC(=O)N(C)C)cc1", "note": "[ZOLPIDEM]", "Bacterial Biotransformation": "Compound metabolized"}
    ]},
    {"conditions": "human gut metagenome, 24 h, 2 µM", "remark": "another data set of the same source", "values": [
      {"smiles": "CN1CCOC(c2ccccc2)c2ccccc2C1", "note": "(stereo not given) [NEFOPAM]", "Bacterial Biotransformation": "Compound metabolized"},
      {"smiles": "Cc1ccc(-c2nc3ccc(C)cn3c2CC(=O)N(C)C)cc1", "note": "[ZOLPIDEM]", "Bacterial Biotransformation": "Compound metabolized"}
    ]},
    {"conditions": "human gut metagenome, 24 h, 2 µM", "remark": "another data set of the same source", "values": [
      {"smiles": "CN1CCOC(c2ccccc2)c2ccccc2C1", "note": "(stereo not given) [NEFOPAM]", "Bacterial Biotransformation": "Compound metabolized"},
      {"smiles": "Cc1ccc(-c2nc3ccc(C)cn3c2CC(=O)N(C)C)cc1", "note": "[ZOLPIDEM]", "Bacterial Biotransformation": "Compound metabolized"}
    ]},
    {"conditions": "human gut metagenome, 24 h, 2 µM", "remark": "another data set of the same source", "values": [
      {"smiles": "CN1CCOC(c2ccccc2)c2ccccc2C1", "note": "(stereo not given) [NEFOPAM]", "Bacterial Biotransformation": "Compound NOT metabolized"},
      {"smiles": "Cc1ccc(-c2nc3ccc(C)cn3c2CC(=O)N(C)C)cc1", "note": "[ZOLPIDEM]", "Bacterial Biotransformation": "Compound NOT metabolized"}
    ]},
    {"conditions": "human gut metagenome, 24 h, 2 µM", "remark": "another data set of the same source", "values": [
      {"smiles": "CN1CCOC(c2ccccc2)c2ccccc2C1", "note": "(stereo not given) [NEFOPAM]", "Bacterial Biotransformation": "Compound NOT metabolized"},
      {"smiles": "Cc1ccc(-c2nc3ccc(C)cn3c2CC(=O)N(C)C)cc1", "note": "[ZOLPIDEM]", "Bacterial Biotransformation": "Compound NOT metabolized"}
    ]},
    {"conditions": "human gut metagenome, 24 h, 2 µM", "remark": "another data set of the same source", "values": [
      {"smiles": "CN1CCOC(c2ccccc2)c2ccccc2C1", "note": "(stereo not given) [NEFOPAM]", "Bacterial Biotransformation": "Compound metabolized"},
      {"smiles": "Cc1ccc(-c2nc3ccc(C)cn3c2CC(=O)N(C)C)cc1", "note": "[ZOLPIDEM]", "Bacterial Biotransformation": "Compound metabolized"}
    ]}
  ]
}
